Data reported in patent US9441024.

Details: disulfide bond; 38-membered ring

Row | Substance | ring closure, yield after HPLC [%]
1 | C(disialo(aminoethylamide))/S1C(disialo)-SRIF28 | 58
2 | C(disialo)-C12 linker-SRIF14 | 61
3 | S1-2C(asialo)-SRIF28 | 55
4 | S1-2C(disialo)-SRIF28 | 58
5 | S1-3C(asialo)-SRIF28 | 52
6 | S1-3C(disialo)-SRIF28 | 63
7 | S1-4C(disialo)-SRIF28 | 57
8 | S1-5C(disialo)-SRIF28 | 76
9 | S1C(diGlcNAc)-SRIF28 | 60
10 | S1C(disialo (hexadecylamide))-SRIF28 | 89
11 | S1C(disialo(aminoethylamide))-SRIF28 | 73
12 | S1C(disialo)-SRIF28 | 59
13 | S1C(disialo).N19C(GlcNAc)-SRIF28 | 59
